Among the test systems are CAKI-1; CCRF-CEM; COLO 205; HCT-15; KM12; M14; MDA-MB-231; MDA-N; MOLT-4; RXF 393; SF-268; SF-295; SK-MEL-2; SK-MEL-5; SW-620; HL-60; HT-29; IGROV-1; Malme-3M; NCI/ADR-RES.
What all share (experiment): NCI anticancer screen, dose series, 48 h

The text below walks through data of ChEMBL document CHEMBL1201862, “PubChem BioAssay data set” (2004).

Each structure is given as a SMILES string.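 Step 1: Grow cells in 96-well plates. Step 2: Expose to compound for 48 hours at 5 concentrations. Step 3: Interpolate endpoints linearly; if unreached, use highest concentration. At the GI50, growth is halved.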 Activity calls are given as the source filed them. Rule as the data show it: active = GI50 up to about 1.1 µM and inactive = higher. Some results are limits rather than exact numbers.

Regarding `CC(C)(C)N1C(=O)[N-]/[N+](=C(/C(c2ccccc2)=[N+]2/[N-]C(=O)N(C(C)(C)C)C2=O)c2ccccc2)C1=O`, the GI50 is > 100 µM (inactive) in the test on CAKI-1; > 100 µM (inactive) with CCRF-CEM; > 100 µM (inactive) in the test on COLO 205; over 100 µM with HCT-15; > 100 µM (inactive) with KM12; > 100 µM (inactive) in the test on M14. Besides, the GI50 with MDA-MB-231, with MDA-N, with MOLT-4, in the test with RXF 393, in the test with SF-268 and with SF-295 was > 100 µM (inactive) throughout. Further, the GI50 with SK-MEL-2, in the test on SK-MEL-5 and in the test on SW-620 was > 100 µM (inactive) in each case.

`COc1nc2c(c(=O)n1C)N[C@@H]1[C@@H](O)[C@H](O)CO[C@@H]1N2`: the GI50 in the test on CAKI-1 is > 100 µM (inactive); in the test on CCRF-CEM, > 100 µM (inactive); in the test on COLO 205, > 100 µM (inactive); in the test with HCT-15, over 100 µM; in the test with HL-60, > 100 µM (inactive); in the test on HT-29, > 100 µM (inactive). The GI50 with IGROV-1 is > 100 µM (inactive); in the test with KM12, > 100 µM (inactive); with M14 it was > 100 µM (inactive); with MDA-N, > 100 µM (inactive); in the test with MOLT-4, > 100 µM (inactive); with Malme-3M, 39.4 µM (inactive). For the same molecule, the GI50 in the test on NCI/ADR-RES, in the test with RXF 393, in the test with SF-268, in the test on SF-295, in the test with SK-MEL-2 and in the test with SK-MEL-5 was > 100 µM (inactive) each time. Further, the GI50 with SW-620 was > 100 µM (inactive).

Take `CCN1CCN=C2c3cc(OC)ccc3Nc3c([N+](=O)[O-])ccc1c32`: the GI50 with CAKI-1 is 0.485 µM (active); with CCRF-CEM it was 0.571 µM (active); in the test on COLO 205, 0.668 µM (active); in the test on HCT-15, 1.21 µM; with HL-60, 0.516 µM (active); in the test with HT-29, 0.705 µM (active). The GI50 was 1.67 µM (inactive) with IGROV-1; 0.713 µM (active) with KM12; 1 µM (active) in the test on M14; 0.736 µM (active) in the test on MDA-MB-231; 0.839 µM (active) in the test on MDA-N; 0.279 µM (active) in the test on MOLT-4. In addition, the GI50 is 0.841 µM (active) in the test with Malme-3M; 0.556 µM (active) in the test with RXF 393; 0.443 µM (active) with SF-268; 1.61 µM (inactive) with SF-295; 1.17 µM (inactive) in the test with SK-MEL-5; 0.472 µM (active) in the test on SW-620.

On to `CC(=O)[C@@H]1[C@@H](OC(=O)CCC(C)COC2OC(CO)C(O)C(O)C2O)C[C@H]2[C@@H]3CC=C4C[C@@H](OC5OC(CO)C(OC6OC(C)C(O)C(O)C6O)C(O)C5OC5OC(C)C(O)C(O)C5O)CC[C@]4(C)[C@H]3CC[C@]12C` (some centres not stated), for which the GI50 in the test with CAKI-1, in the test with CCRF-CEM, in the test on COLO 205, with KM12, in the test on M14 and with MDA-MB-231 was > 100 µM (inactive) throughout. The GI50 in the test with MDA-N is > 100 µM (inactive); in the test on MOLT-4 it was > 100 µM (inactive); in the test on Malme-3M, 52.5 µM (inactive); with RXF 393 it was > 100 µM (inactive); in the test on SF-268 it was > 100 µM (inactive); with SF-295 it was > 100 µM (inactive). Moreover, the values for the GI50 in the test on SK-MEL-2, with SK-MEL-5 and in the test with SW-620 were > 100 µM (inactive), > 100 µM (inactive) and 64.7 µM (inactive), respectively.
